Reference: patent publication US10888541B2, “Method and compositions for treatment and prevention of broad spectrum virus ailments comprising a calcium channel blocker or a calmodulin blocker” (DR. KENNETH ADAMS MEDICINE PROFESSIONAL CORPORATION, priority 2009, dated 2021)

What was measured:
Herpes Zoster infection = assay: Case report: Herpes Zoster infection; format: in vivo, human; conditions: elderly patient; 120 mg SR twice daily
Source text: Elderly patient with Herpes Zoster infection on the upper left abdomen.

[1] = tested on: viral upper respiratory infection; assay: Case report: viral upper respiratory infection, intranasal/throat spray
Source text: person with symptoms of viral upper respiratory infection started experiencing nasal congestion and nasal discharge.

HIV = assay: Case report: HIV patient, T4 helper counts; format: in vivo, human; conditions: 240 mg (120 mg of verapamilSR) twice daily for 2 weeks
[2] = Case report: fever, chills, muscle aches, nausea and diarrhea; format: in vivo, human; conditions: person; 120 mg tablets every 8 hours; within one hour of first tablet
Source text: A person with a three day history of fever, chills, muscle aches and nausea. On the second and third days the patient developed increasing diarrhea. On the morning of the third day the patient was experiencing loose, watery stools with a cramps and lower abdominal pain.

[3] = Case report: latex glove allergy (delayed hypersensitivity reaction); format: in vivo, human
Source text: A person surgeon with a latex glove allergy. Symptoms of a red eczematous rash develops when they use latex gloves.

[4] = Case report: Rheumatoid Arthritis of the hands, topical ointment; conditions: for pain in hand: person, within hours of applying; for mobility of joints: sustained applications over several days
Genital Herpes = assay: Case report: recurrent Genital Herpes; format: in vivo, human
Source text: Patient with a long history of recurrent Genital Herpes was using Diltiazem.

cold sores = assay: Case reports: recurrent cold sores, topical application; format: in vivo, human; conditions: Patient A, 100 mg/ml topically

Compound	pain, rash and healing of lesions (Herpes Zoster infection)	time until nasal discharge stopped ([1]; 0.2 ml of 2 mg/ml sprayed into each nostril and back of throat)	upper respiratory symptoms ([1]; next day, after repeated 0.1 ml applications intranasally and to throat)	nasal congestion and nasal discharge ([1]; person, 0.2 ml of 2 mg/ml sprayed into each nostril and back of throat, within minutes)	T4 helper counts (HIV)	abdominal cramping, stools and diarrhea [2]	chronic rash from daily exposure to latex ([3]; 200 mg/ml ointment)	delayed hypersensitivity reaction to latex gloves ([3]; 200 mg/ml ointment applied prior to wearing latex gloves)	pain in hand [4]	mobility of joints [4]	frequency of genital herpes recurrences (Genital Herpes; after starting treatment, before: several episodes per year)	size and healing of genital herpes episodes (Genital Herpes; when on treatment)	cold sore infection when applied in the initial tingling phase (cold sores)	severity and size of cold sore when application delayed until eruption visible (cold sores)	time to complete healing clearance (cold sores; application delayed until eruption visible, usual 7 days) [days]
COc1ccc(CCN(C)CCCC(C#N)(c2ccc(OC)c(OC)c2)C(C)C)cc1OC (centres unmarked) [Verapamil, verapamil]	reduced pain, reduced rash and rapid healing of lesions	approximately 20 minutes	cleared	reduction in nasal congestion and decreased nasal discharge	significant rise in T4 helper counts	abdominal cramping began subsiding and their stools began to become more formed and diarrhea improved	improved within hours	prevented	significant reduction of pain in their hand	improved mobility of joints					
COc1ccc([C@@H]2Sc3ccccc3N(CCN(C)C)C(=O)[C@@H]2OC(C)=O)cc1 [Diltiazem, diltiazem]									significant reduction of pain in their hand	improved mobility of joints	1-2 episodes per year	much smaller and seemed to heal much quicker	the infection could be prevented	minimize the severity, reduce the size	2 to 4
